Results taken from article PMC12388904, “Hypoglycemic Effects of Silphium perfoliatum L. In Vitro and In Vivo and Its Active Composition Identification by UPLC-Triple-TOF-MS/MS” (Pharmaceuticals, 2025).
Converted amounts (≈) assume the structure as drawn.

Experiments:
diabetic mice [1] = test: Sucrose tolerance test, PBG detection in alloxan-induced diabetic mice; format: in vivo; settings: sucrose 3 g/kg oral, acarbose 6 mg/kg
Protocol: (§1) PBG detection in diabetic mice adhered to the protocol previously established by our group. After 12-h fasting, hyperglycemia was induced by tail vein injection of alloxan at a dose of 60 mg/kg. Fasting blood glucose was measured 72 h post-induction. Mice with blood glucose levels of 180–360 mg/dL were considered diabetic and randomized into five groups (n = 8/group): Model (sucrose 3 g/kg); […] SP-10 L (sucrose 3 g/kg + SP-10 5 mg/kg); SP-10 M (sucrose 3 g/kg + SP-10 10 mg/kg) and SP-10 H (sucrose 3 g/kg + SP-10 20 mg/kg). Blood glucose was measured pre-gavage and at 30, 60, and 120 min post-gavage. Data was recorded and analyzed for PBG and AUC using Graphpad Prism 9.5.1. Maltose and starch experiments used identical designs.

diabetic mice [2] = test: Maltose tolerance test, PBG detection in alloxan-induced diabetic mice; format: in vivo; settings: maltose 3 g/kg oral, compared to model group
Protocol: as §1

diabetic mice [3] = test: Starch tolerance test, PBG detection in alloxan-induced diabetic mice; format: in vivo; settings: starch 3 g/kg oral, acarbose 6 mg/kg, compared to model group
Protocol: as §1

maltase = test: In vitro maltase inhibition (rat intestinal mucosa α-glucosidase, glucose assay kit); settings: for IC50: read-out: IC50 against maltase, Figure 4; for IC50 on maltase: Figure 4C, same IC50 in mass units, in brackets
Excerpt: (§2) The α-Glucosidase preparation and inhibitory activity evaluation followed established laboratory protocols [41]. After overnight fasting, rats were humanely euthanized according to approved ethical guidelines. Small intestinal segments were immediately excised and placed on ice to preserve enzymatic activity. Following longitudinal dissection, the luminal surface was rinsed three times with pre-chilled PBS (0.1 M, pH 7.4), and mucosa was scraped using sterile slides. The mucosal tissue was subsequently dissolved in cold PBS (1:5 m/v), centrifuged (8000 rpm, 4 °C, 4 min), and the supernatant was snap-frozen in liquid nitrogen for storage at −80 °C.
(§3) After shaking, 50 μL of maltase (11.32 U/mL) or sucrase (15.26 U/mL) was added and incubated at 37 °C for 20 min with oscillation. Reactions were terminated by heating at 95 °C for 15 min. Glucose production was quantified using a glucose assay kit, and IC50 values were calculated with GraphPad Prism 9.5.1.

sucrase = sucrase (Rattus norvegicus, UniProt P23739); test: In vitro sucrase inhibition (rat intestinal mucosa α-glucosidase, glucose assay kit)
Excerpt: as §2, §3

[4] = SP-10 10 and 20 mg/kg, compared to model group
[5] = maltose 1 mmol/L, 37 °C, 20 min
[6] = IC50 against sucrase, Figure 4, sucrose 50 mmol/L, 37 °C, 20 min
[7] = IC50 on sucrase, Figure 4D, same IC50 in mass units, in brackets

sucrase, sequence (P23739 whole entry): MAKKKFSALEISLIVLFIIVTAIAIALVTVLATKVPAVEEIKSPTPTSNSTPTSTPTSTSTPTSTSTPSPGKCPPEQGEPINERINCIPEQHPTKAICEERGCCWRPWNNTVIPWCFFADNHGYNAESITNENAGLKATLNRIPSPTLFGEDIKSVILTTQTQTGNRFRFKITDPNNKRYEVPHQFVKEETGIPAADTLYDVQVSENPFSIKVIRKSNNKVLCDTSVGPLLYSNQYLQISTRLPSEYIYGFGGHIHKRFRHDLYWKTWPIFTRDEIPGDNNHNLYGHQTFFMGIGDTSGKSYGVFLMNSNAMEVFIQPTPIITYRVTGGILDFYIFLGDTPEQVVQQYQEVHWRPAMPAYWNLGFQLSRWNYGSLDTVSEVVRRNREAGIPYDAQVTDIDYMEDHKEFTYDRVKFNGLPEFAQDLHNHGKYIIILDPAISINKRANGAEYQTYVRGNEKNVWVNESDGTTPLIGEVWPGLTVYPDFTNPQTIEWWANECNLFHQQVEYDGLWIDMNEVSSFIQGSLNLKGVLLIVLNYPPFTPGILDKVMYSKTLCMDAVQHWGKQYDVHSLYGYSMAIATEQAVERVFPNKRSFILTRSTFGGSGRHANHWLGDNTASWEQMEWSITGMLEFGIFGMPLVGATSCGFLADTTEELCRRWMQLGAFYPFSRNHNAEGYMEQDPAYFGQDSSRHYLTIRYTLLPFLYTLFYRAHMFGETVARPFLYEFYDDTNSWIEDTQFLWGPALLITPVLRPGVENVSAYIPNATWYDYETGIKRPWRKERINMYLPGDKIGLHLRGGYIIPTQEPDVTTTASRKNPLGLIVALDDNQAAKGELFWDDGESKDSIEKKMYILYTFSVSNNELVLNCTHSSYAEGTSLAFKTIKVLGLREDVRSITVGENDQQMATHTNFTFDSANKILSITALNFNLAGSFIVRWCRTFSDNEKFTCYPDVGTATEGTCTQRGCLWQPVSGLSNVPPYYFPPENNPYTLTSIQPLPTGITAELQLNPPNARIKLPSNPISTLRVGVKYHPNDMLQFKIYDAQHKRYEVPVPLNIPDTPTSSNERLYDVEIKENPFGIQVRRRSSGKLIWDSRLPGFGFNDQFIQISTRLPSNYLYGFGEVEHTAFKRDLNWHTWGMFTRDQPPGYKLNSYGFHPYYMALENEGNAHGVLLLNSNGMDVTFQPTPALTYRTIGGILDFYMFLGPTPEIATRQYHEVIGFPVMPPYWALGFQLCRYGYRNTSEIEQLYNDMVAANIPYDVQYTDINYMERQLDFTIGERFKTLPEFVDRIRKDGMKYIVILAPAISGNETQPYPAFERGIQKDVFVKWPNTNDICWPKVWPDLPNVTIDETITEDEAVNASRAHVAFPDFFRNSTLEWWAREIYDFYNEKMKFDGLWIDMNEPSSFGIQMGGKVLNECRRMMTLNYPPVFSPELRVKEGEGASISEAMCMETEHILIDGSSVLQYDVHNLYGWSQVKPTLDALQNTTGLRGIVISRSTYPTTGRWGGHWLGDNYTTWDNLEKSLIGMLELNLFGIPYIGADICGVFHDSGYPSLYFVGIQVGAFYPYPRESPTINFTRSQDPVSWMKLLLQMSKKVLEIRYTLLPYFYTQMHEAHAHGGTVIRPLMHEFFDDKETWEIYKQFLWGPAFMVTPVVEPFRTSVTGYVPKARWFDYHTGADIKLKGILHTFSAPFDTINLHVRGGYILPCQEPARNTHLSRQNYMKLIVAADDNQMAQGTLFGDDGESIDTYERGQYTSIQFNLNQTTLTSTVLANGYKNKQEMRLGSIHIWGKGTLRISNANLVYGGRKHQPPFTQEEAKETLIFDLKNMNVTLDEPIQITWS

| SMILES | Blood glucose AUC (0–120 min) (diabetic mice [1]; [4]) | PBG levels at 30 min (diabetic mice [1]; [4]) | Glycemic levels by 120 min (diabetic mice [1]; SP-10 H 20 mg/kg) | PBG levels at 30 and 60 min (diabetic mice [2]; all three SP-10 groups (5, 10, 20 mg/kg), acarbose 6 mg/kg) | PBG levels at 120 min (diabetic mice [2]; all treatment groups (SP-10 5, 10, 20 mg/kg, acarbose 6 mg/kg)) | PBG levels at all measured time points (diabetic mice [3]; SP-10 H 20 mg/kg) | AUC levels (0–120 min) (diabetic mice [3]; SP-10 M 10 mg/kg and SP-10 H 20 mg/kg) | IC50 for maltase inhibition (maltase; Figure 1, maltose 1 mmol/L, 37 °C, 20 min) [µg/mL] | IC50 (maltase; [5]) [µM] | IC50 (sucrase; [6]) [µM] | IC50 (sucrase; [7]) [µM] | IC50 on maltase (maltase) [µg/mL] | IC50 against sucrase, fold higher relative to acarbose (sucrase) [fold] |
| --- | --- | --- | --- | --- | --- | --- | --- | --- | --- | --- | --- | --- | --- |
| C[C@H]1O[C@H](O[C@H]2[C@H](O)[C@@H](O)[C@@H](O[C@H]3[C@H](O)[C@@H](O)C(O)O[C@@H]3CO)O[C@@H]2CO)[C@H](O)[C@@H](O)[C@@H]1N[C@H]1C=C(CO)[C@@H](O)[C@H](O)[C@H]1O (some centres unmarked) [acarbose, Acarbose] | significantly lower | significant attenuation | restored glycemic levels to preprandial values | lower PBG levels at 30 and 60 min, although these differences were not statistically significant | statistically significant reductions | significantly reduced | markedly decreased | 0.168 | 0.26 | – | – | – | – |
| O=C(C=Cc1ccc(O)c(O)c1)OC1C(O)CC(O)(C(=O)O)CC1O (centres unmarked) [CCGA, cryptochlorogenic acid] | – | – | – | – | – | – | – | – | 109 | 110 | 110 | 38.47 (≈ 109 µM) | – |
| O=C(/C=C/c1ccc(O)c(O)c1)O[C@@H]1C[C@](O)(C(=O)O)C[C@@H](O)[C@H]1O [CGA, chlorogenic acid] | – | – | – | – | – | – | – | – | 115 | 126 | 126 | 40.60 (≈ 115 µM) | 210 |
| O=C(C=Cc1ccc(O)c(O)c1)OC1CC(O)(C(=O)O)CC(O)C1O (centres unmarked) [NCGA, neochlorogenic acid] | – | – | – | – | – | – | – | – | 87.7 | 130 | 129 | 31.07 (≈ 87.7 µM) | 215 |
